Measured values: PMC4716540 (British Journal of Cancer, 2015)

Test system: patients with confirmed relapsed/refractory MM, CLL, or NHL
Experiment: Phase I safety and tolerability: adverse events, DLT, MTD, RP2D
Type: in vivo, human

SMILES: CCc1c(O)cc(O)c(C(=O)c2ccc(OCCN3CCOCC3)c(OC)c2)c1CC(=O)N(CCOC)CCOC [KW-2478]
- Number of treatment-related AEs per patient (average) (14 mg m^–2): 1.0
- AE (treatment-emergent) (14 mg m^–2 (n=3)): 3 (100.0) No. of patients (%)
- Abdominal pain (any AE) (14 mg m^–2 (n=3)): 0 No. of patients (%)
- Acne (any AE) (14 mg m^–2 (n=3)): 0 No. of patients (%)
- Anaemia (any AE) (14 mg m^–2 (n=3)): 0 No. of patients (%)
- Anorexia (any AE) (14 mg m^–2 (n=3)): 0 No. of patients (%)
- Back pain (any AE) (14 mg m^–2 (n=3)): 1 (33.3) No. of patients (%)
- Diarrhoea (any AE) (14 mg m^–2 (n=3)): 0 No. of patients (%)
- Dizziness (any AE) (14 mg m^–2 (n=3)): 0 No. of patients (%)
- Fatigue (any AE) (14 mg m^–2 (n=3)): 1 (33.3) No. of patients (%)
- Haemoglobin decreased (any AE) (14 mg m^–2 (n=3)): 0 No. of patients (%)
- Hair disorder (any AE) (14 mg m^–2 (n=3)): 0 No. of patients (%)
- Headache (any AE) (14 mg m^–2 (n=3)): 1 (33.3) No. of patients (%)
- Herpes simplex infection (any AE) (14 mg m^–2 (n=3)): 0 No. of patients (%)
- Hypertension (any AE) (14 mg m^–2 (n=3)): 0 No. of patients (%)
- LRTI (any AE) (14 mg m^–2 (n=3)): 0 No. of patients (%)
- Musculoskeletal chest pain (any AE) (14 mg m^–2 (n=3)): 0 No. of patients (%)
- Nausea (any AE) (14 mg m^–2 (n=3)): 1 (33.3) No. of patients (%)
- Oral herpes (any AE) (14 mg m^–2 (n=3)): 0 No. of patients (%)
- Rhinitis (any AE) (14 mg m^–2 (n=3)): 1 (33.3) No. of patients (%)
- Serious AE (14 mg m^–2 (n=3)): 0 No. of patients (%)
- Treatment-related AE (14 mg m^–2 (n=3)): 2 (66.7) No. of patients (%)
- Vomiting (any AE) (14 mg m^–2 (n=3)): 0 No. of patients (%)
- AE (treatment-emergent) (28 mg m^–2 (n=3)): 3 (100.0) No. of patients (%)
- Abdominal pain (any AE) (28 mg m^–2 (n=3)): 0 No. of patients (%)
- Acne (any AE) (28 mg m^–2 (n=3)): 1 (33.3) No. of patients (%)
- Anaemia (any AE) (28 mg m^–2 (n=3)): 0 No. of patients (%)
- Anorexia (any AE) (28 mg m^–2 (n=3)): 0 No. of patients (%)
- Back pain (any AE) (28 mg m^–2 (n=3)): 1 (33.3) No. of patients (%)
- Diarrhoea (any AE) (28 mg m^–2 (n=3)): 0 No. of patients (%)
- Dizziness (any AE) (28 mg m^–2 (n=3)): 0 No. of patients (%)
- Fatigue (any AE) (28 mg m^–2 (n=3)): 0 No. of patients (%)
- Haemoglobin decreased (any AE) (28 mg m^–2 (n=3)): 0 No. of patients (%)
- Hair disorder (any AE) (28 mg m^–2 (n=3)): 1 (33.3) No. of patients (%)
- Headache (any AE) (28 mg m^–2 (n=3)): 0 No. of patients (%)
- Herpes simplex infection (any AE) (28 mg m^–2 (n=3)): 1 (33.3) No. of patients (%)
- Hypertension (any AE) (28 mg m^–2 (n=3)): 0 No. of patients (%)
- LRTI (any AE) (28 mg m^–2 (n=3)): 0 No. of patients (%)
- Musculoskeletal chest pain (any AE) (28 mg m^–2 (n=3)): 0 No. of patients (%)
- Nausea (any AE) (28 mg m^–2 (n=3)): 1 (33.3) No. of patients (%)
- Oral herpes (any AE) (28 mg m^–2 (n=3)): 1 (33.3) No. of patients (%)
- Rhinitis (any AE) (28 mg m^–2 (n=3)): 1 (33.3) No. of patients (%)
- Serious AE (28 mg m^–2 (n=3)): 0 No. of patients (%)
- Treatment-related AE (28 mg m^–2 (n=3)): 2 (66.7) No. of patients (%)
- Vomiting (any AE) (28 mg m^–2 (n=3)): 1 (33.3) No. of patients (%)
- AE (treatment-emergent) (47 mg m^–2 (n=4)): 4 (100.0) No. of patients (%)
- Abdominal pain (any AE) (47 mg m^–2 (n=4)): 0 No. of patients (%)
- Acne (any AE) (47 mg m^–2 (n=4)): 1 (25.0) No. of patients (%)
- Anaemia (any AE) (47 mg m^–2 (n=4)): 1 (25.0) No. of patients (%)
- Anorexia (any AE) (47 mg m^–2 (n=4)): 0 No. of patients (%)
- Back pain (any AE) (47 mg m^–2 (n=4)): 0 No. of patients (%)
- Diarrhoea (any AE) (47 mg m^–2 (n=4)): 2 (50.0) No. of patients (%)
- Dizziness (any AE) (47 mg m^–2 (n=4)): 0 No. of patients (%)
- Fatigue (any AE) (47 mg m^–2 (n=4)): 0 No. of patients (%)
- Haemoglobin decreased (any AE) (47 mg m^–2 (n=4)): 0 No. of patients (%)
- Hair disorder (any AE) (47 mg m^–2 (n=4)): 1 (25.0) No. of patients (%)
- Headache (any AE) (47 mg m^–2 (n=4)): 0 No. of patients (%)
- Herpes simplex infection (any AE) (47 mg m^–2 (n=4)): 0 No. of patients (%)
- Hypertension (any AE) (47 mg m^–2 (n=4)): 2 (50.0) No. of patients (%)
- LRTI (any AE) (47 mg m^–2 (n=4)): 0 No. of patients (%)
- Musculoskeletal chest pain (any AE) (47 mg m^–2 (n=4)): 0 No. of patients (%)
- Nausea (any AE) (47 mg m^–2 (n=4)): 0 No. of patients (%)
- Oral herpes (any AE) (47 mg m^–2 (n=4)): 0 No. of patients (%)
- Rhinitis (any AE) (47 mg m^–2 (n=4)): 1 (25.0) No. of patients (%)
- Serious AE (47 mg m^–2 (n=4)): 0 No. of patients (%)
- Treatment-related AE (47 mg m^–2 (n=4)): 3 (75.0) No. of patients (%)
- Vomiting (any AE) (47 mg m^–2 (n=4)): 1 (25.0) No. of patients (%)
- AE (treatment-emergent) (71 mg m^–2 (n=4)): 4 (100.0) No. of patients (%)
- Abdominal pain (any AE) (71 mg m^–2 (n=4)): 0 No. of patients (%)
- Acne (any AE) (71 mg m^–2 (n=4)): 1 (25.0) No. of patients (%)
- Anaemia (any AE) (71 mg m^–2 (n=4)): 0 No. of patients (%)
- Anorexia (any AE) (71 mg m^–2 (n=4)): 0 No. of patients (%)
- Back pain (any AE) (71 mg m^–2 (n=4)): 0 No. of patients (%)
- Diarrhoea (any AE) (71 mg m^–2 (n=4)): 2 (50.0) No. of patients (%)
- Dizziness (any AE) (71 mg m^–2 (n=4)): 2 (50.0) No. of patients (%)
- Fatigue (any AE) (71 mg m^–2 (n=4)): 1 (25.0) No. of patients (%)
- Haemoglobin decreased (any AE) (71 mg m^–2 (n=4)): 1 (25.0) No. of patients (%)
- Hair disorder (any AE) (71 mg m^–2 (n=4)): 1 (25.0) No. of patients (%)
- Headache (any AE) (71 mg m^–2 (n=4)): 2 (50.0) No. of patients (%)
- Herpes simplex infection (any AE) (71 mg m^–2 (n=4)): 1 (25.0) No. of patients (%)
- Hypertension (any AE) (71 mg m^–2 (n=4)): 2 (50.0) No. of patients (%)
- LRTI (any AE) (71 mg m^–2 (n=4)): 1 (25.0) No. of patients (%)
- Musculoskeletal chest pain (any AE) (71 mg m^–2 (n=4)): 0 No. of patients (%)
- Nausea (any AE) (71 mg m^–2 (n=4)): 2 (50.0) No. of patients (%)
- Oral herpes (any AE) (71 mg m^–2 (n=4)): 1 (25.0) No. of patients (%)
- Rhinitis (any AE) (71 mg m^–2 (n=4)): 1 (25.0) No. of patients (%)
- Serious AE (71 mg m^–2 (n=4)): 2 (50) No. of patients (%)
- Treatment-related AE (71 mg m^–2 (n=4)): 4 (100.0) No. of patients (%)
- Death (71 mg m^–2 (n=4), considered unrelated to medication): 1 (25) No. of patients (%)
- AE (treatment-emergent) (99 mg m^–2 (n=4)): 4 (100.0) No. of patients (%)
